US20100130482A1, “DIA[…] DERIVATIVES AS NICOTINIC ACETYLCHOLINE RECEPTOR LIGANDS” (priority 2004, published 2010)
Counter-ions that a name gives are not always drawn.

Experiments:
[1] = target: T1, α7-subtype of nicotinic receptors (Rattus norvegicus, UniProt Q05941); assay: In vitro inhibition of 3H-α-bungarotoxine binding in rat brain; conditions: rat cerebral cortex homogenate; 3H-α-bungarotoxine 2 nM; 2 hours at 37° C.
T1 construct: Cerebral cortices from male Wistar rats (150-250 g) are homogenised; from tissue; host or cells: rat cerebral cortex membrane homogenate
T1 sequence (Q05941 23-502): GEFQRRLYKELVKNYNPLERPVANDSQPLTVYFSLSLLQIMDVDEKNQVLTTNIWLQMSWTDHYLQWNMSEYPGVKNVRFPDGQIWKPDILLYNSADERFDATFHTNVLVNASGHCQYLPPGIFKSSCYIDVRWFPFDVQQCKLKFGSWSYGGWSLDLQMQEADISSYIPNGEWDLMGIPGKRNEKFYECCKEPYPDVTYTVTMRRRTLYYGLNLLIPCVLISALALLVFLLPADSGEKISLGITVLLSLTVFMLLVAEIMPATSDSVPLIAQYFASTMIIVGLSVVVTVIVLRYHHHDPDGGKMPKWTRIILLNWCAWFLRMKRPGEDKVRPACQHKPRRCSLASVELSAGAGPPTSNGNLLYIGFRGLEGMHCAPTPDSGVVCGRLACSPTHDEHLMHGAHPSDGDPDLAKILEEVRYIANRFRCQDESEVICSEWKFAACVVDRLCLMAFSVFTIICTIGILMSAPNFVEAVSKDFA

melting point	SMILES	IC50 [1] [nM]
158 to 161 °C	CCNC(=O)Nc1cccc(-c2ccc(C(=O)N3CCN4CCC3CC4)o2)c1 (as salt: fumaric acid salt)	–
151 °C	Nc1ccc(C(=O)Nc2ccc(-c3ccc(C(=O)N4CCN5CCC4CC5)o3)cc2)cc1	–
171.4 to 174.7 °C	O=C(c1ccc(-c2ccc(NC(=S)Nc3ccccc3)cc2)o1)N1CCN2CCC1CC2	–
171 °C	O=C(Nc1ccc(-c2ccc(C(=O)N3CCN4CCC3CC4)o2)cc1)Nc1cccc(C(F)(F)F)c1	–
223 °C	O=C(c1ccc(-c2ccc(Nc3ncccc3[N+](=O)[O-])cc2)o1)N1CCN2CCC1CC2 (as salt: fumaric acid salt)	–
162.5 to 165.5 °C	CCNC(=O)Nc1ccccc1NC(=O)Nc1ccc(-c2ccc(C(=O)N3CCN4CCC3CC4)o2)cc1 (as salt: fumaric acid salt)	–
195 to 210 °C	O=C(Nc1ccc(-c2ccc(C(=O)N3CCN4CCC3CC4)o2)cc1)c1ccc([N+](=O)[O-])cc1 (as salt: hydrochloric acid salt)	–
250 to 253.5 °C	O=C(Nc1ccc(-c2ccc(C(=O)N3CCN4CCC3CC4)o2)cc1)c1ccncc1 (as salt: fumaric acid salt)	–
254 °C	O=C(Nc1ccc(-c2ccc(C(=O)N3CCN4CCC3CC4)o2)cc1)c1ccccc1	–
198 to 202 °C	O=C(Nc1ccc(-c2ccc(C(=O)N3CCN4CCC3CC4)o2)cc1)Nc1ccccc1[N+](=O)[O-] (as salt: fumaric acid salt)	–
253 °C (dec.)	O=C(Nc1ccc(-c2ccc(C(=O)N3CCN4CCC3CC4)o2)cc1)Nc1ccccc1C(F)(F)F	–
241 °C (dec.)	O=C(Nc1ccc(-c2ccc(C(=O)N3CCN4CCC3CC4)o2)cc1)Nc1ccccc1F	–
230 °C	O=C(Nc1ccc(-c2ccc(C(=O)N3CCN4CCC3CC4)o2)cc1)Nc1cccc(F)c1	–
222 °C	O=C(c1ccc(-c2ccc(-n3cccc3)cc2)o1)N1CCN2CCC1CC2 (as salt: fumaric acid salt)	–
283 °C	O=C(Nc1ccc(-c2ccc(C(=O)N3CCN4CCC3CC4)o2)cc1)c1ccccc1[N+](=O)[O-] (as salt: hydrochloric acid salt)	–
–	CC(=O)Nc1ccccc1NC(=O)Nc1ccc(-c2ccc(C(=O)N3CCN4CCC3CC4)o2)cc1 [Compound B2, 1-{4-[5-(1,4-Diaza-bicyclo[3.2.2]nonane-4-carbonyl)-furan-2-yl]-phenyl}-3-(2-acetylaminophenyl)-urea]	1.6
201 to 204 °C	O=C(Nc1cccc(-c2ccc(C(=O)N3CCN4CCC3CC4)o2)c1)c1ccccc1 (as salt: fumaric acid salt)	–
> 300 °C	O=C(Nc1ccc(-c2ccc(C(=O)N3CCN4CCC3CC4)o2)cc1)c1cccc([N+](=O)[O-])c1 (as salt: hydrochloric acid salt)	–
200 to 211 °C (dec.)	O=C(Nc1ccc(-c2ccc(C(=O)N3CCN4CCC3CC4)o2)cc1)Nc1ccccc1Cl	–
249 to 252 °C	Nc1cccc(C(=O)Nc2ccc(-c3ccc(C(=O)N4CCN5CCC4CC5)o3)cc2)c1	–
–	CCNC(=O)Nc1ccc(-c2ccc(C(=O)N3CCN4CCC3CC4)o2)cc1 [Compound C3, 1-{4-[5-(1,4-Diaza-bicyclo[3.2.2]nonane-4-carbonyl)-furan-2-yl]-phenyl}-3-ethyl-urea]	0.56

SMILES	melting point	IC50 [1] [nM]
Nc1ccccc1NC(=O)Nc1ccc(-c2ccc(C(=O)N3CCN4CCC3CC4)o2)cc1 [Compound A1, 1-{4-[5-(1,4-Diaza-bicyclo[3.2.2]nonane-4-carbonyl)-furan-2-yl]-phenyl}-3-(2-aminophenyl)-urea]	174 °C	1.2
CCNC(=O)Nc1ccc(-c2ccc(C(=O)N3CCN4CCC3CC4)o2)cc1 (as salt: fumaric acid salt) [Compound C3, 1-{4-[5-(1,4-Diaza-bicyclo[3.2.2]nonane-4-carbonyl)-furan-2-yl]-phenyl}-3-ethyl-urea]	167 to 171 °C	–
CC(=O)Nc1ccccc1NC(=O)Nc1ccc(-c2ccc(C(=O)N3CCN4CCC3CC4)o2)cc1 (as salt: fumaric acid salt) [Compound B2, 1-{4-[5-(1,4-Diaza-bicyclo[3.2.2]nonane-4-carbonyl)-furan-2-yl]-phenyl}-3-(2-acetylaminophenyl)-urea]	159 to 169 °C	–
